# Laboratory results as given in publication PMC8524146, “In vitro and in silico characterization of alkaline serine protease from Bacillus subtilis D9 recovered from Saudi Arabia” (Heliyon, 2021).
# Target: T1, AKD9 alkaline serine protease (Bacillus subtilis, UniProt A0A5Q0V2V1)
# T1 construct: native enzyme purified from culture supernatant of isolate D9; single band just below 48 kDa; cloned gene 442 aa, 47,789 Da
# Assay: casein hydrolysis, A280 of TCA-soluble products
# Type: biochemical
# Details: 100 µM; 0.1 mM TLCK; casein substrate
# Excerpt: casein hydrolysis, A280 of TCA-soluble products on AKD9 alkaline serine protease
# T1 sequence (A0A5Q0V2V1 1-442): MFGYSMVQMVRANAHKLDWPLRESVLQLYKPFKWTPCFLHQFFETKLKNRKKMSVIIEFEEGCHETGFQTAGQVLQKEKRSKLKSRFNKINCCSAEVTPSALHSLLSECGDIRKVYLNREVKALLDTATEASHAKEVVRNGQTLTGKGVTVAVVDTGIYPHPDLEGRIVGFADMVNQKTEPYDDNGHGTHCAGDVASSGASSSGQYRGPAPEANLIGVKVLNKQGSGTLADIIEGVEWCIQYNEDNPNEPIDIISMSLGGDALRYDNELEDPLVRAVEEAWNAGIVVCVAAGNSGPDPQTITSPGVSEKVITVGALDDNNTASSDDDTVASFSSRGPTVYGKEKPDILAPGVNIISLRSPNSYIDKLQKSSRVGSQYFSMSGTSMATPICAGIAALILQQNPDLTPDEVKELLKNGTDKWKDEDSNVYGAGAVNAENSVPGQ
smiles,measurement,value
Cc1ccc(S(=O)(=O)N[C@@H](CCCCN)C(=O)CCl)cc1 [TLCK],"Residual activity, U/ml",31.5 ± 0.4 U/ml
